Read-outs that look alike come from different tables or passages of the source.

Format in all cases: biochemical
In one test the target is CDK2-CYCLINA (Homo sapiens, UniProt P24941). Briefly: Microfluidic LabChip inhibition assay, CDK2-CYCLINA. The note with it: ATP 50 μM. As to the method: (§1) The reaction was terminated by the addition of EDTA. The plates were analyzed using a Caliper LabChip 3000.
(§2) Additional inhibition assays were performed as described above.

A further test deals with CDK7 CyclinH (Homo sapiens, UniProt P50613). Briefly: Inhibition assay, CDK7 CyclinH. On the procedure:
as §1, §2

The target in another test is CDK9-CYCLINT1 (Homo sapiens, UniProt P50750). In words: Microfluidic LabChip inhibition assay, CDK9-CYCLINT1. The note with it: ATP 10 μM. As to the method: as §1, §2
Chain of CDK9-CYCLINT1 (P50750 whole entry): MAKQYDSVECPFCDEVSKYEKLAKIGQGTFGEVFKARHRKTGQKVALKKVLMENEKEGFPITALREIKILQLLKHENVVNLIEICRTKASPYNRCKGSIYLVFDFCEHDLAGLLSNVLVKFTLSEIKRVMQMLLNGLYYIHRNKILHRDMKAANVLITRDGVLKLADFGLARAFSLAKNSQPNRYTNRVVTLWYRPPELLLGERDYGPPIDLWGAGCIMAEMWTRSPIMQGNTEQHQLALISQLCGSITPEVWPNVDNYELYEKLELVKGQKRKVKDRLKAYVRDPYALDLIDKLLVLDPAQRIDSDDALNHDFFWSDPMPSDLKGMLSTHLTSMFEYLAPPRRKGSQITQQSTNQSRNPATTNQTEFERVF
Chain of CDK9-CYCLINT1 (O60563 whole entry partner): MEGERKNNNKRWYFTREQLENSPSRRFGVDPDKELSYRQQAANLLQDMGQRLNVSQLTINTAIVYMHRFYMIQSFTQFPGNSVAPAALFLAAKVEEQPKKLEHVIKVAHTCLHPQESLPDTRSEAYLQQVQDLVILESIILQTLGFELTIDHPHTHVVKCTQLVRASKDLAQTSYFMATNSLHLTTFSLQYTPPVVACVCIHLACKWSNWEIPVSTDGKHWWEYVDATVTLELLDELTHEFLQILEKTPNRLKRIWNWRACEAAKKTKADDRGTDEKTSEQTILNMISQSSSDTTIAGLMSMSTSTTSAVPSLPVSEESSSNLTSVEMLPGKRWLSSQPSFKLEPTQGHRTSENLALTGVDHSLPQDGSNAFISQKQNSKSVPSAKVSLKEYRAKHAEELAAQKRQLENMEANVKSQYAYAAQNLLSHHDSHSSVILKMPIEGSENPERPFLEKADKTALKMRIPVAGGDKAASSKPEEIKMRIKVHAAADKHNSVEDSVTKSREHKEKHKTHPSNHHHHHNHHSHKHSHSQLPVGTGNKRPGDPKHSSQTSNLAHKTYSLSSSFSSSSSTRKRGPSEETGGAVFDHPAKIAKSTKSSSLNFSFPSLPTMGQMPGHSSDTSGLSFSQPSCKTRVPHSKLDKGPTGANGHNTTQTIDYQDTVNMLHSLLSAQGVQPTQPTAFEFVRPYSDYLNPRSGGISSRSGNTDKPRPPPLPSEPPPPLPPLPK
The target of another test is CDK4-CYCLIND1 (Homo sapiens, UniProt P11802). In words: Microfluidic LabChip inhibition assay, CDK4-CYCLIND1. The note with it: ATP 200 μM, second values in parentheses on the line below, not explained, read-out: CDK4 CyclinD1 IC50. On the procedure:
as §1, §2

Another test deals with CDK1/B (Homo sapiens, UniProt P06493). Briefly: Inhibition assay, CDK1/B. As to the method: as §1, §2
Chain of CDK1/B (P06493 whole entry): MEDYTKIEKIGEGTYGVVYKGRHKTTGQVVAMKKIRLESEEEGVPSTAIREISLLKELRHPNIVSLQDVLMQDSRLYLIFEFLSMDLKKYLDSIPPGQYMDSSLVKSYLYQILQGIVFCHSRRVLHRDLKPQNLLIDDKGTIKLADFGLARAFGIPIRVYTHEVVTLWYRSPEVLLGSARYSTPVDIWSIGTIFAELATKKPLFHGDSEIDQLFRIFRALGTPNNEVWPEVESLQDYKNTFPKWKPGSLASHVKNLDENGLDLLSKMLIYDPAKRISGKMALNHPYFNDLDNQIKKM
Chain of CDK1/B (P14635 whole entry partner): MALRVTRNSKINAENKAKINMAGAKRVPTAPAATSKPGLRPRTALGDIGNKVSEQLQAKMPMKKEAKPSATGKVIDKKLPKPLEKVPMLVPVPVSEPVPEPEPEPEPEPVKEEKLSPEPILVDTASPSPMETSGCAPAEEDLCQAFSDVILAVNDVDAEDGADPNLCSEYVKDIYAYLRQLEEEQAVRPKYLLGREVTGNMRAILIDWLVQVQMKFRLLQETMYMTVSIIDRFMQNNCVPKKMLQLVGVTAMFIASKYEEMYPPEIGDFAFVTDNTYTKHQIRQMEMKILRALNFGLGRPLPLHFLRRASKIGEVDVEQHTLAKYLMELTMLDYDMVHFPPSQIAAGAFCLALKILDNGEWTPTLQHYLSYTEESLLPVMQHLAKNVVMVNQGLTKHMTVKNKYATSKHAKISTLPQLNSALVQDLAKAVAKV
[1] abbreviates: Table 3a, read-out: CDK1/B IC50.
[2] abbreviates: Table 3b, read-out: CDK1/B IC50.

Chain of CDK7 CyclinH (P50613 whole entry): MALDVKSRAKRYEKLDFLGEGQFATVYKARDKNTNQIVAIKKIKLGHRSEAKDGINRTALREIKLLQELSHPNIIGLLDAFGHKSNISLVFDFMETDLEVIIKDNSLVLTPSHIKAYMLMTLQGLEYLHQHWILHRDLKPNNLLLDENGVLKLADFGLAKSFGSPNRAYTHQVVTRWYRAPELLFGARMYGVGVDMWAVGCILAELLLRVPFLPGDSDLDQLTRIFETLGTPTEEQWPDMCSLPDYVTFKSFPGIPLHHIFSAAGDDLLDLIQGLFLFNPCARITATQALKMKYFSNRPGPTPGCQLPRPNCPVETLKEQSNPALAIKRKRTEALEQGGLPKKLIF
Chain of CDK7 CyclinH (P51946 whole entry partner): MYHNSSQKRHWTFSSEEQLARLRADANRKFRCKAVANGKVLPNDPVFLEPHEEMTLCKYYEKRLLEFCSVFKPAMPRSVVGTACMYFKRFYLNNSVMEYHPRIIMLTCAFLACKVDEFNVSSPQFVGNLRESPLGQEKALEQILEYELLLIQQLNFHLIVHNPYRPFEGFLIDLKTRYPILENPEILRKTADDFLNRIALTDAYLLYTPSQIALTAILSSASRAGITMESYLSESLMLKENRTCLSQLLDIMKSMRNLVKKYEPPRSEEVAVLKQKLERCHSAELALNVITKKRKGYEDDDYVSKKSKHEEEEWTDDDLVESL
Chain of CDK7 CyclinH (P51948 whole entry partner): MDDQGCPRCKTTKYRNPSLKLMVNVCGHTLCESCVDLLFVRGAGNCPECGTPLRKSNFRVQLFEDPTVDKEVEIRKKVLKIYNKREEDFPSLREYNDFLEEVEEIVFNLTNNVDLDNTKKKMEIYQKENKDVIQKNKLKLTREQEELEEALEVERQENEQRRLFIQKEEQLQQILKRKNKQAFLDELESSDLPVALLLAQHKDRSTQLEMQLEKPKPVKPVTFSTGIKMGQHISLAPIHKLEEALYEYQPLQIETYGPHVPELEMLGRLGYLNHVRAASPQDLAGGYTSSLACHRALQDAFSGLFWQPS
Chain of CDK4-CYCLIND1 (P11802 whole entry): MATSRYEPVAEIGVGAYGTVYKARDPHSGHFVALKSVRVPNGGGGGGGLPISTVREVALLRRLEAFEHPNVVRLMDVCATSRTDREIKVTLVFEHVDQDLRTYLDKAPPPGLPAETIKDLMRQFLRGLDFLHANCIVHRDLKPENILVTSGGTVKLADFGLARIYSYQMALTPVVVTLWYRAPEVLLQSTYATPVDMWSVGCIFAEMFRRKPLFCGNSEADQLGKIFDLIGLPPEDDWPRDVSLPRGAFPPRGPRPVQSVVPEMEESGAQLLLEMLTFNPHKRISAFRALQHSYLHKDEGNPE
Chain of CDK4-CYCLIND1 (P24385 whole entry partner): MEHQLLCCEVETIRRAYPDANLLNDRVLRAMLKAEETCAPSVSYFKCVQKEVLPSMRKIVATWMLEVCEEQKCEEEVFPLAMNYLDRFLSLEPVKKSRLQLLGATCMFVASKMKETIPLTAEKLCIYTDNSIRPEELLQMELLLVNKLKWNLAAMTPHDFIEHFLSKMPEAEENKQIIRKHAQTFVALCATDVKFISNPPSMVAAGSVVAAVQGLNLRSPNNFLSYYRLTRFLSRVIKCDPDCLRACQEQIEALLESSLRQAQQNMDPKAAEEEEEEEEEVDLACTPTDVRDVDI

For the compound `CS(=O)(=O)N1CCC(Nc2ncc3cc(C#N)c(=O)n(C45CC(C4)C5)c3n2)CC1` [Compound B113, 8-(bicyclo[1.1.1]pentan-1-yl)-2-((1-(methylsulfonyl)piperidin-4-yl)amino)-7-oxo-7,8-dihydropyrido[2,3-d]pyrimidine-6-carbonitrile], the IC50 on CDK2-CYCLINA (Table 3a), against CDK2-CYCLINA (Table 3b), against CDK7 CyclinH (Table 3a), against CDK7 CyclinH (Table 3b), at CDK9-CYCLINT1 (Table 3a) and against CDK9-CYCLINT1 (Table 3b) was > 10000 nM each time. For the same compound, the IC50 on CDK4-CYCLIND1 (Table 3a), on CDK4-CYCLIND1 (Table 3b), on CDK1/B (setting [1]) and at CDK1/B (setting [2]) was > 10000 nM throughout.

Take `CN(C)CCOc1ccc(Nc2ncc3cc(C#N)c(=O)n(C45CC(C4)C5)c3n2)nc1` [Compound B149, 8-(bicyclo[1.1.1]pentan-1-yl)-2-((5-(2-(dimethylamino)ethoxy)pyridin-2-yl)amino)-7-oxo-7,8-dihydropyrido[2,3-d]pyrimidine-6-carbonitrile]: the IC50 against CDK2-CYCLINA (Table 3a) is > 10000 nM; on CDK2-CYCLINA (Table 3b), > 10000 nM; on CDK7 CyclinH (Table 3a) it was > 10000 nM; on CDK7 CyclinH (Table 3b), > 10000 nM; against CDK9-CYCLINT1 (Table 3a), 733 nM; against CDK9-CYCLINT1 (Table 3b), 733 nM. Also, the IC50 on CDK4-CYCLIND1 (Table 3a) was 505 nM; on CDK4-CYCLIND1 (Table 3b), 505 nM; at CDK1/B (setting [1]), > 10000 nM; on CDK1/B (setting [2]), > 10000 nM.

Regarding `Cc1c(C(=O)N(C)C)c(=O)n(C2CCCC2)c2nc(Nc3ccc(N4CC(C)NC(C)C4)cc3)ncc12` (stereo not drawn) [Compound B151, 8-cyclopentyl-2-((4-(3,5-dimethylpiperazin-1-yl)phenyl)amino)-N,N,5-trimethyl-7-oxo-7,8-dihydropyrido[2,3-d]pyrimidine-6-carboxamide], the IC50 against CDK2-CYCLINA (Table 3a) was > 10000 nM; against CDK2-CYCLINA (Table 3b), > 10000 nM; against CDK7 CyclinH (Table 3a), > 10000 nM; against CDK7 CyclinH (Table 3b), > 10000 nM; at CDK9-CYCLINT1 (Table 3a) it was 5140 nM; against CDK9-CYCLINT1 (Table 3b) it was 5140 nM. Besides, the IC50 is 8.93 nM at CDK4-CYCLIND1 (Table 3a), 8.93 nM at CDK4-CYCLIND1 (Table 3b), > 10000 nM on CDK1/B (setting [1]) and > 10000 nM on CDK1/B (setting [2]).

`CS(=O)(=O)N1CCC(Nc2ncc3cc(C#N)c(=O)n(C4CCCC4)c3n2)CC1` [Compound B152, 8-cyclopentyl-2-((1-(methylsulfonyl)piperidin-4-yl)amino)-7-oxo-7,8-dihydropyrido[2,3-d]pyrimidine-6-carbonitrile]: the IC50 at CDK2-CYCLINA (Table 3a) is 15.3 nM; on CDK2-CYCLINA (Table 3b), 15.3 nM; at CDK7 CyclinH (Table 3a), 745 nM; at CDK7 CyclinH (Table 3b), 745 nM; against CDK9-CYCLINT1 (Table 3a), 105 nM; at CDK9-CYCLINT1 (Table 3b), 105 nM. Also, the IC50 at CDK4-CYCLIND1 (Table 3a) was found to be 3.29 nM; at CDK4-CYCLIND1 (Table 3b), 3.29 nM; on CDK1/B, 47.9 nM.

As to `CN(C)C(=O)c1cc2cnc(NC3CCN(S(C)(=O)=O)CC3)nc2n(C2CCCC2)c1=O` [Compound B153, 8-cyclopentyl-N,N-dimethyl-2-((1-(methylsulfonyl)piperidin-4-yl)amino)-7-oxo-7,8-dihydropyrido[2,3-d]pyrimidine-6-carboxamide], the IC50 was 285 nM at CDK2-CYCLINA (Table 3a); 285 nM at CDK2-CYCLINA (Table 3b); > 10000 nM on CDK7 CyclinH (Table 3a); > 10000 nM against CDK7 CyclinH (Table 3b); 4580 nM on CDK9-CYCLINT1 (Table 3a); 4580 nM at CDK9-CYCLINT1 (Table 3b). The IC50 at CDK4-CYCLIND1 (Table 3a) is 21.3 nM; at CDK4-CYCLIND1 (Table 3b), 21.3 nM; at CDK1/B (setting [1]) it was 763 nM.

In the case of `Cc1c(C(=O)N(C)C)c(=O)n(C23CC(C2)C3)c2nc(NC3CCN(S(C)(=O)=O)CC3)ncc12` [Compound B156, 8-(bicyclo[1.1.1]pentan-1-yl)-N,N,5-trimethyl-2-((1-(methylsulfonyl)piperidin-4-yl)amino)-7-oxo-7,8-dihydropyrido[2,3-d]pyrimidine-6-carboxamide], the IC50 on CDK2-CYCLINA (Table 3a) is 1020 nM; against CDK2-CYCLINA (Table 3b), 1020 nM; against CDK7 CyclinH (Table 3a), > 10000 nM; against CDK7 CyclinH (Table 3b) it was > 10000 nM; at CDK9-CYCLINT1 (Table 3a), > 10000 nM; at CDK9-CYCLINT1 (Table 3b), > 10000 nM. Also, the IC50 on CDK4-CYCLIND1 (Table 3a) is 101 nM; at CDK4-CYCLIND1 (Table 3b) it was 101 nM; on CDK1/B (setting [1]), 2820 nM.

With `Cc1c(C(=O)N(C)C)c(=O)n(C23CC(C2)C3)c2nc(NC3CC4CCC3C4)ncc12` (stereo not drawn) [Compound B157, 8-(bicyclo[1.1.1]pentan-1-yl)-2-(bicyclo[2.2.1]heptan-2-ylamino)-N,N,5-trimethyl-7-oxo-7,8-dihydropyrido[2,3-d]pyrimidine-6-carboxamide], the IC50 was 5250 nM on CDK2-CYCLINA (Table 3a); 5250 nM against CDK2-CYCLINA (Table 3b); > 10000 nM against CDK7 CyclinH (Table 3a); > 10000 nM against CDK7 CyclinH (Table 3b); 2450 nM at CDK9-CYCLINT1 (Table 3a); 2450 nM on CDK9-CYCLINT1 (Table 3b). Moreover, the IC50 at CDK4-CYCLIND1 (Table 3a) is 1250 nM; on CDK4-CYCLIND1 (Table 3b), 1250 nM; on CDK1/B (setting [1]), > 10000 nM; on CDK1/B (setting [2]), > 10000 nM.

`Cc1c(C(=O)N(C)C)c(=O)n(C23CC(C2)C3)c2nc(NC3CC4CCC3C4)ncc12` (stereo not drawn) [Compound B158, 8-(bicyclo[1.1.1]pentan-1-yl)-2-(bicyclo[2.2.1]heptan-2-ylamino)-N,N,5-trimethyl-7-oxo-7,8-dihydropyrido[2,3-d]pyrimidine-6-carboxamide]: the IC50 on CDK2-CYCLINA (Table 3a) is > 10000 nM; on CDK2-CYCLINA (Table 3b), > 10000 nM; against CDK7 CyclinH (Table 3a), > 10000 nM; against CDK9-CYCLINT1 (Table 3a), 2750 nM; against CDK9-CYCLINT1 (Table 3b), 2750 nM; on CDK4-CYCLIND1 (Table 3a) it was 1590 nM. Besides, the IC50 on CDK4-CYCLIND1 (Table 3b) was 1590 nM; on CDK1/B (setting [1]), > 10000 nM.

For the compound `CN1CC2(C1)CN(c1ccc(Nc3ncc4cc(C#N)c(=O)n(C5CCCC5)c4n3)cc1)C2` [Compound B159, 8-cyclopentyl-2-((4-(6-methyl-2,6-diazaspiro[3.3]heptan-2-yl)phenyl)amino)-7-oxo-7,8-dihydropyrido[2,3-d]pyrimidine-6-carbonitrile], the IC50 against CDK2-CYCLINA (Table 3a) is 500 nM; on CDK2-CYCLINA (Table 3b), 500 nM; against CDK7 CyclinH (Table 3a) it was 2420 nM; against CDK7 CyclinH (Table 3b), 2420 nM; against CDK9-CYCLINT1 (Table 3a) it was 90.6 nM; against CDK9-CYCLINT1 (Table 3b), 90.6 nM. Moreover, the figures for the IC50 at CDK4-CYCLIND1 (Table 3a), at CDK4-CYCLIND1 (Table 3b) and at CDK1/B (setting [1]) were 4.02 nM, 4.02 nM and 1300 nM, respectively.

Values taken from patent publication US20220220103A1, “CYCLIN-DEPENDENT KINASE INHIBITORS” (SPV THERAPEUTICS INC., priority 2018, published 2022).
